Measured values reported in patent US11293015B2, “Diels-Alderase and use thereof” (Peking University, priority 2020, dated 2022).

How the values were obtained:
MaDA [1] = experiment: Enzymatic activity test, MaDA run alongside MaDA-1; assay type: biochemical, Morus alba; details: Diene 3 100 μM, Dienophile 1 100 μM, SUMO-MaDA 27 nM, pH 8.0, 50° C., 10 min
Experimental: (§1) The activity of MaDA-1 was tested as follows: to a 97 μL reaction buffer (20 mm Tris-HCl, pH=8.0), 1 μL of Diene 3 (final concentration of 100 μM) and 1 […] (final concentration of 100 μM) were added, and then 1 μL of SUMO-MaDA protein (final concentration 27 nM) or SUMO-MaDA-1 (final concentration 27 nM) was added. The reaction mixture was reacted at 50° C. for 10 min, then quenched by adding 200 μL methanol, and centrifuged at 13,000 rpm for 30 min. The supernatant was analyzed by HPLC. In the control group as blank control, no protein was added.

MaDA-1 = experiment: Enzymatic activity test for MaDA-1; assay type: biochemical, Morus alba; details: Diene 3 100 μM, Dienophile 1 100 μM, SUMO-MaDA-1 27 nM, pH 8.0, 50° C., 10 min
Experimental: as §1

MaDA-2 = experiment: Activity test of MaDA-2; assay type: biochemical, Morus alba; details: dienophile 100 μM, Diene 3, 22, 23 or 24 100 μM, SUMO-MaDA-2 54 nM, pH 8.0, 50° C., 5 min
Experimental: Under the catalyzation of MaDA-2, the reaction activity between Dienophile 1 and different dienes 3, 22, 23 and 24 was measured following the protocol as follows: to a […] reaction buffer (20 mm Tris-HCl, pH=8.0), 1 μL of Dienophile 1 (final concentration of 100 μM) and 1 μL Diene 3, 22, 23 or 24 (final concentration of 100 μM) were added, and then 1 μL of SUMO-MaDA-2 (final concentration 54 nM) was added. The reaction mixture was reacted at 50° C. for 5 min, then quenched by adding 200 μL methanol. The reaction solution was analyzed by HPLC under the analysis conditions mentioned above, and the results were shown in FIG. 20. […] However, unlike MaDA, MaDA-2 can recognize Dienophile 5 to generate corresponding natural products or their analogs.

MaDA [2] = experiment: Conversion of dienophile substrates in the enzymatic D-A reaction; assay type: biochemical, Morus alba
Experimental: In the present Example, the conversion of Dienophiles 1 and 5-9 under enzymatic D-A reaction conditions were also determined. The reaction conditions were as follows:
To 96 μL reaction buffer (20 mM Tris-HCl, pH 8.0) was added 2 μL Diene 3 (final concentration, 200 μM) and 1 μL different chalcones or their derivatives (i.e., Dienophiles 1 and 5-9, final concentration, 100 μM). Then 1 μL MaDA or SUMO-MaDA (final concentration, 540 nM) was added. The resulting mixture was reacted at 50° C. for 5 min. The reactions were terminated by the addition of 200 μl of methanol. The reaction liquid were analyzed using the HPLC analysis condition mentioned above. After three repeated experiments, the conversion of Dienophiles 1, 7, 8, 9, 5 and 6 are determined as 74%, 55%, 13%, 78%, 0%, 71% respectively, as shown in FIG. 12.

[3] = Optimum temperature and pH of MaDA; assay type: biochemical; details: Diene 3 0.1 mM, Dienophile 1 0.1 mM, 0.02 μg MaDA, 5 min, buffers pH 4.0-11.0
Experimental: The effects of different reaction temperatures (25, 30, 35, 40, 45, 50, 55, 60, and 70° C.) on [4+2] cyclization catalyzed by MaDA were investigated using Diene 3 and Dienophile 1 as substrates. The reaction system was as follows: the reaction mixture (100 μL) containing Diene 3 (0.1 mM) and Dienophile 1 (0.1 mM), and 0.02 μg MaDA was reacted for 5 min in Tris HCl buffer at pH 7.5 (the buffer solution was balanced at different temperatures for 15 min in advance). After the reaction, 200 μL ice-cold methanol was added to terminate the reaction, and vortex mixing was carried out. The resulting mixture was centrifuged at 15,000 g for 30 min. The supernatant was analyzed by HPLC. […] The conversion of the substrate was calculated by substituting the peak area of the product into the standard curve to calculate the reduction of the substrate.
The effects of buffer at different pH (pH 4.0-6.0, citric acid-sodium citrate buffer; 6.0-7.0, disodium hydrogen phosphate-sodium dihydrogen phosphate buffer; 7.0-9.0, Tris HCl buffer; 9.0-11.0, sodium carbonate-sodium bicarbonate buffer) on the [4+2] cyclization reaction of MaDA was investigated using Diene 3 and Dienophile 1 as substrates. […] The supernatant was analyzed by HPLC. […] The conversion of the substrate was calculated by substituting the peak area of the product into the standard curve to calculate the reduction of substrate.

Sequence of MaDA-2 (as listed by the source): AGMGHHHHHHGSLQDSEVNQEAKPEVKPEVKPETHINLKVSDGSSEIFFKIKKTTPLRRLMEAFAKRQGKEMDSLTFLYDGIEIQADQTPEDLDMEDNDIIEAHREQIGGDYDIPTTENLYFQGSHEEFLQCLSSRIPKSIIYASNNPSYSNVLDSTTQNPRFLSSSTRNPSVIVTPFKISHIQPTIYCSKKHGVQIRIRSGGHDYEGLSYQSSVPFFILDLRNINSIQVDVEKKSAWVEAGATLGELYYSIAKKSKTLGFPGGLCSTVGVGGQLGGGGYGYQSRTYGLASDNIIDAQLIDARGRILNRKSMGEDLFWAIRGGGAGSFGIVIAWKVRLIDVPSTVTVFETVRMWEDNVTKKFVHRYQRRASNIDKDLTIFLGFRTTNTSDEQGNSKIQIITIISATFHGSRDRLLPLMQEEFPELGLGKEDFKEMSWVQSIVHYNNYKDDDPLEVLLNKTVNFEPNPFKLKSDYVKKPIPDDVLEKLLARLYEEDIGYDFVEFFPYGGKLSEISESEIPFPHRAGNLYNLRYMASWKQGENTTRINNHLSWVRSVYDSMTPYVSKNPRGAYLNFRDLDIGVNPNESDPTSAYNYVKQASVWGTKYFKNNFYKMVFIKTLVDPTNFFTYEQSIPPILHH

Molecule	consumption of substrate with MaDA, chalcomoracin (4) produced (MaDA [1])	consumption of substrate with MaDA-1, chalcomoracin (4) produced (MaDA-1)	MaDA-2 catalysed reaction between dienophile and different dienes (MaDA-2)	conversion of dienophile (MaDA [2]; Diene 3 200 μM, dienophile 100 μM, MaDA or SUMO-MaDA 540 nM, pH 8.0, 50° C., 5 min, three repeated experiments)	effective recognition of dienophile by MaDA protein (MaDA [2]; same condition as the conversion test (540 nM enzyme, 50° C., 5 min))	optimum pH [3]
C=C(C)/C=C/c1c(O)cc(-c2cc3ccc(O)cc3o2)cc1O [Diene 3]	almost completely consumed	almost completely consumed				
morachalcone A [Dienophile 1]	almost completely consumed	almost completely consumed	can also catalyze the reaction	74%	effectively recognize	
MaDA: Diels-Alderase identified from Morus alba, amino acid sequence SEQ ID No.1 (protein) MQYFSFPSSLAKITIFLIFSFVFASSANDTHEAFLECLTTRIPSNSTFTPQSIIYTPDNPSYSTILDSTTQNPRFLSSSTRNPFAIITPLHASHIQAALYCSQKHGEQMRIRSGGHDYEGLSYQSSVPFFILDLRNLSSISIDAKSKSAWVQAGATIGELYYGIAKTSLNLSFPGGVAHTIGVGGQLGGGGYGYSTRKYGLASDNVIDAQLIDARGRILDRKTMGEDLFWAIRGGGAGSFGIVLAWKIRLVNTPSTVTIFEAVRSWENNTTKKFIRRYQRRASKTDKDLTIFVGFRTTSSTDEEGNERISILTIVSATFHGSKDRLLQLVQKEFPDLGLVSEECTEMSWVRSIIHFNLFGDEVPLEVLLNRTLNFEMKAFKLRSDYVQKPIPDDVLEKLLSKLYDEETGEGYIEFFPYGGKMSKISESEIPFPYRAGNLYNLRYMVSWKDDGNITRTNMHLSWIKDAYDYMTPYVSKDPRGAYLNFRDLDIGVNVNESDYDYVAKASVWGTKYFRNNFYRLVDIKTIVDPTNFFKYEQSIPPLPPLHSAM						8.0
